Data from article PMC11189555, “Aryl amino acetamides prevent Plasmodium falciparum ring development via targeting the lipid-transfer protein PfSTART1” (Nature Communications, 2024).
Where “and” joins values, the source holds several entries; their conditions need not be identical. Equal entries are not always repeated. Where two headings read alike, the source gives them in different places.

Tested on: CR-N330K parasites
Experiment: Growth inhibition assay (72 h, LDH activity)
Assay type: cell-based, Plasmodium falciparum
Conditions: for inhibition at up to 5 µM: dilution point 5 of 10, read-out: Growth inhibition assay, NORMALISED
Description: Parasite growth assays with inhibitory compounds were performed as per[11] and are fully described in the Supplementary Information.
Molecular biology and transfection of P. falciparum: CRISPR method.
The full 5’ homology region of pfstart1 (either WT, N309K or N330K) was amplified from pPfSTART1-HA-2A-Neo-glmS with the same 5’ BglII primer and a new 3’ primer that replaced with PstI with SpeI and introduced a stop codon. The PCR product was then digested with BglII and SpeI and inserted into similarly digested p1.2 parasite vector2. The p1.2 vector had previously been inserted with a homology region amplified from the 3’ end of the pfstart1 gene (3’HB) to form a second homology block for double recombination. The primers used to amplify 3’HB are listed primers listed in […]
60 μg of p1.2-PfSTART1(WT/N309K/N330K) plasmid was linearised with KasI, precipitated in 3 M sodium acetate and ethanol (70% final concentration) overnight at -20°C. The DNA pellet was washed in cold 70% ethanol and resuspended in cytomix 3.
50 μ M of crRNA ( Table S 2) and 50 μM of tracRNA (Integrated DNA Technologies) were allowed to form a duplex (5 min at 95°C), and Cas9 enzyme (Integrated DNA Technologies) was added, and incubated for 20 min at room temperature 4. This crRNA -tracRNA -Cas9 mix was added to each DNA preparation and transfected to 3D7 ring parasites using the Bio -Rad Gene Pulser at 310 V and 950 μF.
Parasites containing the transfected DNA were selected using 2.5 nM WR99210 (Jacobus). Parasites lines were cloned using limiting dilution. Correct integration was tested by PCR (using primer START_5’UTR.F and START_Int.R1 , Table S 2), and sequencing was done using the primers START_3F and START_Int.R2 (Table S 2).
Growth inhibition assays. Synchronised ring-stage parasites (0.3-0.6% parasitemia, 2% haematocrit) were grown for 72 h in a serial-dilution of the compound under […]
and compound 4. Note that M-833 was first purchased from MolPort (MolPort -002-267-916) then made in-house at WEHI: the differences observed in EC50s across experiments are attributed to the different batches of M -833. For some experiments, 0, 0.25 or 2.5 mM of glucosamine (GlcN) was also added. Experiments were set up in technical duplicates or triplicates. Following a freeze -thaw cycle, lactate dehydrogenase (LDH) activity was assessed as an indicator of parasite growt h 5. 30 μL of parasite culture was incubated for 30 min in the dark with 75 μL Malstat mixture (0.1 M Tris pH 9.0, 20 g/L lactic acid, pH 7.5, 0.2% Triton-X100, 0.5 g/L acetylpyridine adenine dinucleotide (APAD, Sigma), 200 μg/mL nitroblue tetrazolium (NBT; Sigma), 1 μg/mL phenozine ethosulfate (PES; Sigma)). Absorbance was then measured at 650 nm, transformed using the formula below, plotted against the logarithm of the concentrations, and a non-linear regression (log(inhibitor) vs. response, variable slope) was calculated using GraphPad Prism to assess the half-inhibitory […]
Growth inhibition % = (1 − average(sample)− average(uRBC)) ∗ 100 […]
The DMSO samples were also used to assess growth of parasite in the presence of 0.25 and 2.5 mM GlcN (normalised by DMSO in 0 mM GlcN).
Egress, invasion & recovery assay. To measure egress, invasion and follow up recovery in the presence of different compounds, we adapted the method developed in6, using Hyp1-Nluc parasites7. These parasites episomally express the exported PEXEL protein Hyp1 (PF3D7_0113300) tagged with a NanoLuc luciferase (NLuc) and were selected with 2.5 nM WR99210 (Jacobus). Highly synchronised schizonts were obtained using ML10 (LifeArc) and sorbitol synchronisation, and Percoll-purified (the culture was gently layered over 67% Percoll (Cytiva) in RPMI, and centrifuged for 15 min at 1500 g and the schizont layer was collected and washed). In a 96-well plate, […]

SMILES: CC(C)(Nc1ccc(Cl)c(S(=O)(=O)N2CCOCC2)c1)C(=O)Nc1ccc(F)c(Cl)c1 [W-991]
- NORMALISED (growth inhibition, LDH absorbance) (2.5 mM GlcN, dilution point 9 of 10 from starting concentration 5 uM): 10.3592 and 12.8289
- fold less susceptible than the 3D7 and CR-WT controls (Fig 4C): around 600 fold
- fold sensitised on PfSTART1 knock-down with GlcN (Fig 4C): 7.3 fold
- EC50 (Fig 4C, 0 mM GlcN, n = 3, read-out: EC50 W-991 (95% confidence interval)): < 700 nM
- inhibition at 5 µM (Plasmodium falciparum, 0 mM GlcN, dilution point 1 of 10, starting concentration 5 uM, read-out: NORMALISED (growth inhibition, LDH absorbance)): 84.5%
- inhibition (Plasmodium falciparum, 0 mM GlcN, starting concentration 5 uM, dilution point 1 of 10, read-out: Growth inhibition assay, NORMALISED): 90.1%
- inhibition (Plasmodium falciparum, 0 mM GlcN, starting concentration 5 uM, dilution point 3 of 10, read-out: Growth inhibition assay, NORMALISED): 50.4%
- inhibition (Plasmodium falciparum, 0 mM GlcN, starting concentration 5 uM, dilution point 4 of 10, read-out: Growth inhibition assay, NORMALISED): 20.2%
- inhibition at up to 5 µM (Plasmodium falciparum, 0 mM GlcN, starting concentration 5 uM): 14.5%
- inhibition (Plasmodium falciparum, 0 mM GlcN, starting concentration 5 uM, dilution point 6 of 10, read-out: Growth inhibition assay, NORMALISED): 9.02%
- inhibition (Plasmodium falciparum, 0 mM GlcN, starting concentration 5 uM, dilution point 7 of 10, read-out: Growth inhibition assay, NORMALISED): 9.74%
- inhibition (Plasmodium falciparum, 0 mM GlcN, starting concentration 5 uM, dilution point 8 of 10, read-out: Growth inhibition assay, NORMALISED): 9.24%
- inhibition (Plasmodium falciparum, 0 mM GlcN, starting concentration 5 uM, dilution point 9 of 10, read-out: Growth inhibition assay, NORMALISED): 12.9%
- inhibition (Plasmodium falciparum, 0 mM GlcN, starting concentration 5 uM, dilution point 10 of 10, read-out: Growth inhibition assay, NORMALISED): 5.95%
- inhibition at 5 µM (Plasmodium falciparum, 0.25 mM GlcN, dilution point 1 of 10, starting concentration 5 uM, read-out: NORMALISED (growth inhibition, LDH absorbance)): 86.4%
- inhibition at 5 µM (Plasmodium falciparum, 0.25 mM GlcN, starting concentration 5 uM, dilution point 1 of 10, read-out: Growth inhibition assay, NORMALISED): 87.6%
- inhibition at 5 µM (Plasmodium falciparum, 0.25 mM GlcN, starting concentration 5 uM, dilution point 2 of 10, read-out: Growth inhibition assay, NORMALISED): 84.3%
- inhibition at 5 µM (Plasmodium falciparum, 0.25 mM GlcN, starting concentration 5 uM, dilution point 3 of 10, read-out: Growth inhibition assay, NORMALISED): 66.9%
- inhibition at 5 µM (Plasmodium falciparum, 0.25 mM GlcN, starting concentration 5 uM, dilution point 4 of 10, read-out: Growth inhibition assay, NORMALISED): 35.9%
- inhibition at 5 µM (Plasmodium falciparum, 0.25 mM GlcN, starting concentration 5 uM, dilution point 6 of 10, read-out: Growth inhibition assay, NORMALISED): 2.77%
- inhibition at 5 µM (Plasmodium falciparum, 0.25 mM GlcN, starting concentration 5 uM, dilution point 7 of 10, read-out: Growth inhibition assay, NORMALISED): 9.45%
- inhibition at 5 µM (Plasmodium falciparum, 0.25 mM GlcN, starting concentration 5 uM, dilution point 8 of 10, read-out: Growth inhibition assay, NORMALISED): 11.2%
- inhibition at 5 µM (Plasmodium falciparum, 0.25 mM GlcN, starting concentration 5 uM, dilution point 9 of 10, read-out: Growth inhibition assay, NORMALISED): 16.2%
- inhibition at 5 µM (Plasmodium falciparum, 0.25 mM GlcN, starting concentration 5 uM, dilution point 10 of 10, read-out: Growth inhibition assay, NORMALISED): 6.13%
- inhibition (Plasmodium falciparum, 2.5 mM GlcN, starting concentration 5 uM, dilution point 1 of 10, read-out: Growth inhibition assay, NORMALISED): 33.9%
- inhibition (Plasmodium falciparum, 2.5 mM GlcN, starting concentration 5 uM, dilution point 2 of 10, read-out: Growth inhibition assay, NORMALISED): 33.5%
- inhibition (Plasmodium falciparum, 2.5 mM GlcN, starting concentration 5 uM, dilution point 3 of 10, read-out: Growth inhibition assay, NORMALISED): 23.8%
- inhibition (Plasmodium falciparum, 2.5 mM GlcN, starting concentration 5 uM, dilution point 4 of 10, read-out: Growth inhibition assay, NORMALISED): 10.8%
- inhibition at up to 5 µM (Plasmodium falciparum, 2.5 mM GlcN, starting concentration 5 uM): -13.2%
- inhibition (Plasmodium falciparum, 2.5 mM GlcN, starting concentration 5 uM, dilution point 6 of 10, read-out: Growth inhibition assay, NORMALISED): -23.5%
- inhibition (Plasmodium falciparum, 2.5 mM GlcN, starting concentration 5 uM, dilution point 7 of 10, read-out: Growth inhibition assay, NORMALISED): -34.6%
- inhibition (Plasmodium falciparum, 2.5 mM GlcN, starting concentration 5 uM, dilution point 8 of 10, read-out: Growth inhibition assay, NORMALISED): -22.6%
- inhibition (Plasmodium falciparum, 2.5 mM GlcN, starting concentration 5 uM, dilution point 9 of 10, read-out: Growth inhibition assay, NORMALISED): -27.3%
- inhibition (Plasmodium falciparum, 2.5 mM GlcN, starting concentration 5 uM, dilution point 10 of 10, read-out: Growth inhibition assay, NORMALISED): -18.7%
- EC50 (Plasmodium falciparum, read-out: EC50 W-991 (95% confidence interval), Fig 4C, 0 mM GlcN, n = 3): 623 nM
- EC50 (Plasmodium falciparum, read-out: EC50 W-991 (95% confidence interval), Fig 4C, 0.25 mM GlcN, n = 3): 336 nM
- EC50 (Plasmodium falciparum, read-out: EC50 W-991 (95% confidence interval), Fig 4C, 2.5 mM GlcN, n = 3): 85.3 nM
- EC50 (read-out: EC50 W-991 (95% confidence interval), Fig 4C, 0 mM GlcN, n = 3): 623 nM
